Results: US20230085307A1, “PYRIDAZINONE COMPOUND AND HERBICIDE” (NISSAN CHEMICAL CORPORATION, priority 2019, published 2023)

Columns and labels:
chickweed = assay: Test Example 5: herbicidal effect by foliage application, plastic box (Table 20, symbol P); type: in vivo, common chickweed (Stellaria media); details: foliage application after 14-day growth, evaluated three weeks after application
Outline: (§1)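 Sow seeds spot-wise in sterilized diluvial soil; cover with ~1.5 cm soil. Grow 14 days in greenhouse, 25° C. to 30° C. Spray foliage with emulsion diluted to predetermined amount. Rate effect after 3 weeks.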

southern crabgrass = assay: Test Example 5: herbicidal effect by foliage application, plastic box (Table 20, symbol F); type: in vivo, southern crabgrass (Digitaria ciliaris); details: foliage application after 14-day growth, evaluated three weeks after application
Outline: as §1

lambsquarters = assay: Test Example 5: herbicidal effect by foliage application, plastic box (Table 20, symbol O); type: in vivo, lambsquarters (Chenopodium album); details: foliage application after 14-day growth, evaluated three weeks after application
Outline: as §1

Chinese sprangletop = assay: Test Example 3: herbicidal effect by foliage application, Wagner pot (Table 18, symbol D); type: in vivo, chinese sprangletop (Leptochloa chinensis); details: 320 g/ha
Outline: (§2)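 Plants were sown in alluvial soil held under 0.1–0.5 cm standing water and grown 14 days in a greenhouse at 25–30 °C. An emulsifiable formulation, water-diluted to the set dose, was then sprayed onto the foliage, and effects were scored three weeks later using previously defined criteria.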

barnyard grass [1] = assay: Test Example 3: herbicidal effect by foliage application, Wagner pot (Table 18, symbol H); type: in vivo, barnyard grass (Echinochloa crus-galli); details: 320 g/ha
Outline: as §2

wild oat = assay: Test Example 5: herbicidal effect by foliage application, plastic box (Table 20, symbol I); type: in vivo, wild oat (Avena fatua); details: foliage application after 14-day growth, evaluated three weeks after application
Outline: as §1

barnyard grass [2] = assay: Test Example 5: herbicidal effect by foliage application, plastic box (Table 20, symbol H); type: in vivo, barnyard grass (Echinochloa crus-galli); details: foliage application after 14-day growth, evaluated three weeks after application
Outline: as §1

redroot pigweed = assay: Test Example 5: herbicidal effect by foliage application, plastic box (Table 20, symbol N); type: in vivo, redroot pigweed (Amaranthus retroflexus); details: foliage application after 14-day growth, evaluated three weeks after application
Outline: as §1

Japanese bulrush = assay: Test Example 1: herbicidal activity, application before weed generation under submerged conditions (Table 16, symbol B); type: in vivo, Japanese bulrush (Schoenoplectus juncoides); details: amount of applied herbicide 320 g/ha
Outline: (§3)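 Alluvial soil was flooded to 4 cm depth, weed seeds were sown mixed and 2.5-leaf rice seedlings were transplanted. On sowing day, the compound's emulsion, diluted in water to a set dose, was applied to the water surface. Plants grew at 25–30 °C and were scored 0–5 after three weeks.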

green foxtail = assay: Test Example 5: herbicidal effect by foliage application, plastic box (Table 20, symbol G); type: in vivo, green foxtail (Setaria viridis); details: foliage application after 14-day growth, evaluated three weeks after application
Outline: as §1

Italian ryegrass = assay: Test Example 5: herbicidal effect by foliage application, plastic box (Table 20, symbol K); type: in vivo, Italian ryegrass (Lolium multiflorum); details: foliage application after 14-day growth, evaluated three weeks after application
Outline: as §1

persian speedwell = assay: Test Example 5: herbicidal effect by foliage application, plastic box (Table 20, symbol R); type: in vivo, Persian speedwell (Veronica persica); details: foliage application after 14-day growth, evaluated three weeks after application
Outline: as §1

blackgrass = assay: Test Example 5: herbicidal effect by foliage application, plastic box (Table 20, symbol J); type: in vivo, blackgrass (Alopecurus myosuroides); details: foliage application after 14-day growth, evaluated three weeks after application
Outline: as §1

late watergrass = assay: Test Example 1: herbicidal activity, application before weed generation under submerged conditions (Table 16, symbol A); type: in vivo, late watergrass (Echinochloa oryzicola); details: amount of applied herbicide 320 g/ha
Outline: as §3

velvetleaf = assay: Test Example 5: herbicidal effect by foliage application, plastic box (Table 20, symbol M); type: in vivo, velvetleaf (Abutilon theophrasti); details: foliage application after 14-day growth, evaluated three weeks after application
Outline: as §1

rice flat sedge = assay: Test Example 3: herbicidal effect by foliage application, Wagner pot (Table 18, symbol E); type: in vivo, rice flat sedge (Cyperus iria); details: 320 g/ha
Outline: as §2

oval-leafed pondweed = assay: Test Example 1: herbicidal activity, application before weed generation under submerged conditions (Table 16, symbol C); type: in vivo, oval-leafed pondweed (Monochoria vaginalis); details: amount of applied herbicide 320 g/ha
Outline: as §3

[3] = amount of applied herbicide 320 g/ha

Q: How did the “herbicidal effect on P: chickweed (evaluation grade 0-5)” value (chickweed; 320 g/ha) turn out when `Cc1nn(C)c(=O)c(-c2c(-c3ccc(C#N)cc3)sc3c(Cl)cccc23)c1O` [4-031] was run?
A: 5 (Herbicidal rate of 90% or more (almost completely withered))

Q: And the “herbicidal effect on F: southern crabgrass (evaluation grade 0-5)” value (southern crabgrass; 320 g/ha)?
A: 0 (Herbicidal rate of 5% or less (almost no effect))

Q: What about the “herbicidal effect on O: lambsquarters (evaluation grade 0-5)” value (lambsquarters; 320 g/ha) of the same compound?
A: 4 (Herbicidal rate of 70% or more and less than 90%)

Q: What about the “herbicidal effect on Chinese sprangletop (D)” value (Chinese sprangletop) of the same compound?
A: 3 (Herbicidal rate of 40% or more and less than 70%)

Q: And the “herbicidal effect on barnyard grass (H)” value (barnyard grass [1])?
A: 3 (Herbicidal rate of 40% or more and less than 70%)

Q: And the “herbicidal effect on I: wild oat (evaluation grade 0-5)” value (wild oat; 320 g/ha)?
A: 0 (Herbicidal rate of 5% or less (almost no effect))

Q: And the “herbicidal effect on H: barnyard grass (evaluation grade 0-5)” value (barnyard grass [2]; 320 g/ha)?
A: 0 (Herbicidal rate of 5% or less (almost no effect))

Q: And the “herbicidal effect on N: redroot pigweed (evaluation grade 0-5)” value (redroot pigweed; 320 g/ha)?
A: 5 (Herbicidal rate of 90% or more (almost completely withered))

Q: And the “Herbicidal effect, B: Japanese bulrush” value (Japanese bulrush)?
A: 0 (Herbicidal rate of 5% or less (almost no effect))

Q: What about the “herbicidal effect on G: green foxtail (evaluation grade 0-5)” value (green foxtail; 320 g/ha) of the same compound?
A: 2 (Herbicidal rate of 20% or more and less than 40%)

Q: And the “herbicidal effect on K: Italian ryegrass (evaluation grade 0-5)” value (Italian ryegrass; 320 g/ha)?
A: 3 (Herbicidal rate of 40% or more and less than 70%)

Q: And the “herbicidal effect on R: persian speedwell (evaluation grade 0-5)” value (persian speedwell; 320 g/ha)?
A: 0 (Herbicidal rate of 5% or less (almost no effect))

Q: What about the “herbicidal effect on J: blackgrass (evaluation grade 0-5)” value (blackgrass; 320 g/ha) of the same compound?
A: 0 (Herbicidal rate of 5% or less (almost no effect))

Q: And the “Herbicidal effect, A: late watergrass” value (late watergrass)?
A: 2 (Herbicidal rate of 20% or more and less than 40%)

Q: And the “herbicidal effect on M: velvetleaf (evaluation grade 0-5)” value (velvetleaf; 320 g/ha)?
A: 3 (Herbicidal rate of 40% or more and less than 70%)

Q: What about the “herbicidal effect on rice flat sedge (E)” value (rice flat sedge) of the same compound?
A: 5 (Herbicidal rate of 90% or more (almost completely withered))

Q: And the “Herbicidal effect, C: oval-leafed pondweed” value (oval-leafed pondweed)?
A: 0 (Herbicidal rate of 5% or less (almost no effect))

Q: With `CCCC(=O)Oc1c(C)nn(C)c(=O)c1-c1c(-c2ccc(OC)c(OC)c2)sc2cc(F)c(F)cc12` [5-034] as the compound, how does the “Herbicidal effect by foliage application, P: chickweed” value (chickweed; [3]) read?
A: 5 (Herbicidal rate of 90% or more (almost completely withered))

Q: What about the “Herbicidal effect by foliage application, F: southern crabgrass” value (southern crabgrass; [3]) of the same compound?
A: 0 (Herbicidal rate of 5% or less (almost no effect))

Q: And the “Herbicidal effect by foliage application, O: lambsquarters” value (lambsquarters; [3])?
A: 4 (Herbicidal rate of 70% or more and less than 90%)

Q: And the “herbicidal effect on Chinese sprangletop (D)” value (Chinese sprangletop)?
A: 1 (Herbicidal rate of 5% or more and less than 20%)

Q: What about the “herbicidal effect on barnyard grass (H)” value (barnyard grass [1]) of the same compound?
A: 4 (Herbicidal rate of 70% or more and less than 90%)

Q: And the “Herbicidal effect by foliage application, I: wild oat” value (wild oat; [3])?
A: 0 (Herbicidal rate of 5% or less (almost no effect))

Q: And the “Herbicidal effect by foliage application, H: barnyard grass” value (barnyard grass [2]; [3])?
A: 0 (Herbicidal rate of 5% or less (almost no effect))

Q: And the “Herbicidal effect by foliage application, N: redroot pigweed” value (redroot pigweed; [3])?
A: 3 (Herbicidal rate of 40% or more and less than 70%)

Q: And the “Herbicidal effect, B: Japanese bulrush” value (Japanese bulrush)?
A: 0 (Herbicidal rate of 5% or less (almost no effect))

Q: And the “Herbicidal effect by foliage application, G: green foxtail” value (green foxtail; [3])?
A: 3 (Herbicidal rate of 40% or more and less than 70%)

Q: And the “Herbicidal effect by foliage application, K: Italian ryegrass” value (Italian ryegrass; [3])?
A: 0 (Herbicidal rate of 5% or less (almost no effect))

Q: And the “Herbicidal effect by foliage application, R: persian speedwell” value (persian speedwell; [3])?
A: 4 (Herbicidal rate of 70% or more and less than 90%)

Q: What about the “Herbicidal effect by foliage application, J: blackgrass” value (blackgrass; [3]) of the same compound?
A: 0 (Herbicidal rate of 5% or less (almost no effect))

Q: What about the “Herbicidal effect, A: late watergrass” value (late watergrass) of the same compound?
A: 3 (Herbicidal rate of 40% or more and less than 70%)

Q: What about the “Herbicidal effect by foliage application, M: velvetleaf” value (velvetleaf; [3]) of the same compound?
A: 3 (Herbicidal rate of 40% or more and less than 70%)

Q: And the “herbicidal effect on rice flat sedge (E)” value (rice flat sedge)?
A: 0 (Herbicidal rate of 5% or less (almost no effect))

Q: What about the “Herbicidal effect, C: oval-leafed pondweed” value (oval-leafed pondweed) of the same compound?
A: 0 (Herbicidal rate of 5% or less (almost no effect))
